Test: Kinetic inertness: acid-assisted dechelation in excess HCl
Format: physicochemical
Conditions: for t½ (0.1 M HCl, 80 °C) / t½ (1.0 M HCl, 80 °C) / t½ (6.0 M HCl, 80 °C) / t½ (0.1 M HCl, 25 °C): dechelation half-life, HPLC-UV after 1 h, 1 day, 1 week, 1 month, ± error of the fit; for t½ (0.1 M HCl, 80 °C) / t½ (0.1 M HCl, 25 °C): 0.5 mM chelate in 0.1 M HCl; for t½ (0.1 M HCl, 80 °C) / t½ (1.0 M HCl, 80 °C) / t½ (0.1 M HCl, 25 °C): exponential decay fit; for t½ (1.0 M HCl, 80 °C): 0.5 mM chelate in 1.0 M HCl; for t½ (6.0 M HCl, 80 °C): 0.5 mM chelate in 6.0 M HCl, fit y = exp(−x/t), t½ = ln(2) × t; for abundance of intact chelate: section above Supp. Fig 16, head with acid, temperature and time not given; for half-life / half-life, h: Figure 2A

| Structure (SMILES) | t½ (0.1 M HCl, 80 °C) (80 °C) | t½ (1.0 M HCl, 80 °C) (80 °C) | t½ (6.0 M HCl, 80 °C) (80 °C) | abundance of intact chelate | half-life (0.1 M HCl, 25 °C) | half-life, h (0.1 M HCl, 80 °C) | half-life, h (1.0 M HCl, 80 °C) | half-life, h (6.0 M HCl, 80 °C) | half-life, h (0.1 M HCl, 25 °C) | half-life (0.1 M HCl, 80 °C) | half-life (1.0 M HCl, 80 °C) | half-life (6.0 M HCl, 80 °C) | t½ (0.1 M HCl, 25 °C) (25 °C) | estimated half-life (6.0 M HCl at 80 °C) | intact chelate (ratio NO2BnDOTA/[Lu(NO2BnDOTA)]) (0.1 M HCl at 80 °C after 1 h, HPLC-UV, initial and repeated injection identical) |
| --- | --- | --- | --- | --- | --- | --- | --- | --- | --- | --- | --- | --- | --- | --- | --- |
| O=C([O-])CN1CCN2CCN(CC(=O)[O-])CCN(CC1)Cc1cccc(n1)-c1cn(nn1)Cc1cc(-c3ccccc3)cc(n1)C2.[Gd+3] [1,4-cz-[Gd(PhL1)]] | too unstable | too unstable | too unstable | 97.8% | – | – | – | – | – | – | – | – | – | – | – |
| O=C([O-])CN1CCN2CCN(CC(=O)[O-])CCN(CC1)Cc1cccc(n1)-c1cn(nn1)Cc1cc(-c3ccccc3)cc(n1)C2.[Lu+3] [1,4-cz-[Lu(PhL1)]] | too unstable | too unstable | too unstable | 98.7% | – | – | – | – | – | – | – | – | – | – | – |
| O=C([O-])CN1CCN2CCN(CC(=O)[O-])CCN(CC1)Cc1cccc(n1)-c1cnnn1Cc1cc(-c3ccccc3)cc(n1)C2.[Ce+3] [Ph{Ce}] | too unstable | too unstable | too unstable | – | 16.5 h | too unstable | too unstable | too unstable | – | – | – | – | – | – | – |
| O=C([O-])CN1CCN2CCN(CC(=O)[O-])CCN(CC1)Cc1cccc(n1)-c1cnnn1Cc1cc(-c3ccccc3)cc(n1)C2.[Dy+3] [Ph{Dy}] | – | – | – | 100.0% | – | – | – | – | too stable | 95000 h | 3500 h | 12 h | too stable | – | – |
| O=C([O-])CN1CCN2CCN(CC(=O)[O-])CCN(CC1)Cc1cccc(n1)-c1cnnn1Cc1cc(-c3ccccc3)cc(n1)C2.[Er+3] [Ph{Er}] | too stable | – | – | 100.0% | – | too stable | – | – | too stable | – | 59200 h | 343 h | too stable | – | – |
| O=C([O-])CN1CCN2CCN(CC(=O)[O-])CCN(CC1)Cc1cccc(n1)-c1cnnn1Cc1cc(-c3ccccc3)cc(n1)C2.[Eu+3] [Ph{Eu}] | – | – | too unstable | – | – | – | – | too unstable | too stable | 380 h | 7.3 h | – | too stable | – | – |
| O=C([O-])CN1CCN2CCN(CC(=O)[O-])CCN(CC1)Cc1cccc(n1)-c1cnnn1Cc1cc(-c3ccccc3)cc(n1)C2.[Ho+3] [Ph{Ho}] | too stable | – | – | 100.0% | – | too stable | – | – | too stable | – | 13200 h | 68.2 h | too stable | – | – |
| O=C([O-])CN1CCN2CCN(CC(=O)[O-])CCN(CC1)Cc1cccc(n1)-c1cnnn1Cc1cc(-c3ccccc3)cc(n1)C2.[Lu+3] [Ph{Lu}] | too stable | too stable | – | 100.0% | – | too stable | too stable | – | too stable | – | – | 25300 h | too stable | ~3 years | – |
| O=C([O-])CN1CCN2CCN(CC(=O)[O-])CCN(CC1)Cc1cccc(n1)-c1cnnn1Cc1cc(-c3ccccc3)cc(n1)C2.[Nd+3] [Ph{Nd}] | – | too unstable | too unstable | – | 179 h | – | too unstable | too unstable | – | 2.55 h | – | – | – | – | – |
| O=C([O-])CN1CCN2CCN(CC(=O)[O-])CCN(CC1)Cc1cccc(n1)-c1cnnn1Cc1cc(-c3ccccc3)cc(n1)C2.[Tm+3] [Ph{Tm}] | too stable | too stable | – | 100.0% | – | too stable | too stable | – | too stable | – | – | 1360 h | too stable | – | – |
| O=C([O-])CN1CCN2CCN(CC(=O)[O-])CCN(CC1)Cc1cccc(n1)-c1cnnn1Cc1cc(-c3ccccc3)cc(n1)C2.[Y+3] [Ph{Y}] | – | – | – | 100.0% | – | – | – | – | – | – | – | – | too stable | – | – |
| O=C([O-])CN1CCN(CC(=O)[O-])CCN(CC(=O)[O-])C(Cc2ccc([N+](=O)[O-])cc2)CN(CC(=O)[O-])CC1.[La+3] (stereo not drawn) [[La(NO2BnDOTA)], reference compound] | – | too unstable | too unstable | – | – | – | – | – | – | – | – | – | – | – | – |
| O=C([O-])CN1CCN(CC(=O)[O-])CCN(CC(=O)[O-])C(Cc2ccc([N+](=O)[O-])cc2)CN(CC(=O)[O-])CC1.[Lu+3] (stereo not drawn) [[Lu(NO2BnDOTA)], reference compound] | – | – | too unstable | – | – | – | – | – | – | – | – | – | – | – | 76% |

Continued, values first:

| t½ (0.1 M HCl, 80 °C) (80 °C) | t½ (1.0 M HCl, 80 °C) (80 °C) | t½ (6.0 M HCl, 80 °C) (80 °C) | abundance of intact chelate | half-life (0.1 M HCl, 25 °C) | half-life, h (0.1 M HCl, 80 °C) | half-life, h (1.0 M HCl, 80 °C) | half-life, h (6.0 M HCl, 80 °C) | half-life, h (0.1 M HCl, 25 °C) | half-life (0.1 M HCl, 80 °C) | half-life (1.0 M HCl, 80 °C) | half-life (6.0 M HCl, 80 °C) | t½ (0.1 M HCl, 25 °C) (25 °C) | estimated half-life (6.0 M HCl at 80 °C) | intact chelate (ratio NO2BnDOTA/[Lu(NO2BnDOTA)]) (0.1 M HCl at 80 °C after 1 h, HPLC-UV, initial and repeated injection identical) | Structure (SMILES) |
| --- | --- | --- | --- | --- | --- | --- | --- | --- | --- | --- | --- | --- | --- | --- | --- |
| too unstable | too unstable | too unstable | 38.9% | – | – | – | – | – | – | – | – | – | – | – | O=C([O-])CN1CCN2CCN(CC(=O)[O-])CCN(CC1)Cc1cccc(n1)-c1cnnn1Cc1cc(-c3ccccc3)cc(n1)C2.[Ca+2] [Ph{Ca}] |
| – | – | – | – | – | – | – | – | too stable | 2470 h | 30.4 h | 0.17 h | too stable | – | – | O=C([O-])CN1CCN2CCN(CC(=O)[O-])CCN(CC1)Cc1cccc(n1)-c1cnnn1Cc1cc(-c3ccccc3)cc(n1)C2.[Gd+3] [Ph{Gd}] |
| too unstable | too unstable | too unstable | – | 2.48 h | too unstable | too unstable | too unstable | – | – | – | – | – | – | – | O=C([O-])CN1CCN2CCN(CC(=O)[O-])CCN(CC1)Cc1cccc(n1)-c1cnnn1Cc1cc(-c3ccccc3)cc(n1)C2.[La+3] [Ph{La}] |
| – | too unstable | too unstable | – | 51.7 h | – | too unstable | too unstable | – | 0.467 h | – | – | – | – | – | O=C([O-])CN1CCN2CCN(CC(=O)[O-])CCN(CC1)Cc1cccc(n1)-c1cnnn1Cc1cc(-c3ccccc3)cc(n1)C2.[Pr+3] [Ph{Pr}] |
| – | – | too unstable | – | 13400 h | – | – | too unstable | – | 111 h | 1.46 h | – | – | – | – | O=C([O-])CN1CCN2CCN(CC(=O)[O-])CCN(CC1)Cc1cccc(n1)-c1cnnn1Cc1cc(-c3ccccc3)cc(n1)C2.[Sm+3] [Ph{Sm}] |
| – | – | – | – | – | – | – | – | too stable | 31700 h | 372 h | 2.1 h | too stable | – | – | O=C([O-])CN1CCN2CCN(CC(=O)[O-])CCN(CC1)Cc1cccc(n1)-c1cnnn1Cc1cc(-c3ccccc3)cc(n1)C2.[Tb+3] [Ph{Tb}] |
| too stable | too stable | – | 100.0% | – | too stable | too stable | – | too stable | – | – | 4690 h | too stable | – | – | O=C([O-])CN1CCN2CCN(CC(=O)[O-])CCN(CC1)Cc1cccc(n1)-c1cnnn1Cc1cc(-c3ccccc3)cc(n1)C2.[Yb+3] [Ph{Yb}] |
| – | – | too unstable | – | – | – | – | – | – | – | – | – | – | – | – | O=C([O-])CN1CCN(CC(=O)[O-])CCN(CC(=O)[O-])C(Cc2ccc([N+](=O)[O-])cc2)CN(CC(=O)[O-])CC1.[Gd+3] (stereo not drawn) [[Gd(NO2BnDOTA)], reference compound] |

— publication PMC11561307, “Ultra-inert lanthanide chelates as mass tags for multiplexed bioanalysis” (Nature Communications, 2024)
